Like-named read-outs stand apart in the source and are kept apart here.
What was measured:
Wild type P450cam [1] = molecular target: T1, Wild type P450cam (Pseudomonas putida, UniProt P00183); format: binding, P. putida; conditions: for Wild type ΔSpin high/low: -- = no shift, nd = not determined; for haem spin-state conversion on substrate binding: Soret band 418 nm to 392 nm
P450cam Mutant Y96A = P450cam Mutant Y96A (Pseudomonas putida, UniProt P00183, C335A/Y97A); format: binding, P. putida; conditions: for Mutant Y96A ΔSpin high/low: -- = no shift, nd = not determined
[2] = molecular target: T2, P450cam active site mutant Y96A (also C334A) (Pseudomonas putida, UniProt P00183, C335A/Y97A); format: biochemical, P. putida; conditions: label = product
T2 construct: reconstituted with putidaredoxin and putidaredoxin reductase
Method: (§1) A buffered solution (50 mM Tris.HCI, pH 7.4), typically 3 ml in volume, containing 10 uM putidaredoxin, 2 uM putidaredoxin reductase, 1 uM cytochrome P-450cam mono-oxygenase (wild-type or mutant), 200 mM KCI, 50 ug/ml bovine liver catalase (Sigma), and 1 mM target organic compound such as cyclohexylbenzene (added as a 0.1 M stock in ethanol) was preincubated at 30° C. for 5 minutes. The enzymatic reaction was initiated by adding NADH to a total concentration of 2 mM. Further four aliquots of NADH (to increase the NADH concentration by 1 mM each time) were added in intervals of 10 minutes, and 30 minutes into the incubation one aliquot of substrate (to increase the concentration by 1 mM) was also added. The reaction was quenched after 60 minutes by adding 0.5 ml chloroform and vortexing the mixture. The phases were separated by centrifugation (4000 g) at 4° C. The chloroform layer was analyzed by gas chromatography.
(§2) For many substrate compounds such as cyclohexylbenzene for which not all the P-450cam-mediated oxidation products are commercially available, the chloroform extracts are evaporated to dryness under a stream of nitrogen. The residues were extracted with hexane and the oxidation products separated by high performance liquid chromatography, eluting with a hexane/isopropanol gradient. The purified products were then identified by mass spectroscopy and particularly nuclear magnetic resonance spectroscopy.
(§3) The NADH concentration can be monitored at 340 nm and, in all cases, more substrates and NADH are added during the incubation.

[3] = molecular target: T3, P450cam active site mutant Y96F (also C334A) (Pseudomonas putida, UniProt P00183, C335A/Y97F); format: biochemical, P. putida; conditions: label = product
T3 construct: reconstituted with putidaredoxin and putidaredoxin reductase
Method: as §1, §2, §3

Wild type P450cam [4] = molecular target: T1, Wild type P450cam; assay: Turnover rate measured as NADH consumption rate; format: biochemical, P. putida; conditions: small alkanes; background about 0.07
Method: as §1, §3
(§4) Turnover rate measured as NADH consumption rate
(§5) (nmole NADH/nmole P450cam/s).

[5] = molecular target: T4, P450cam Y96A (also contains the C334A mutation) (Pseudomonas putida, UniProt P00183, C335A/Y97A); format: biochemical, P. putida; conditions: small alkanes
T4 construct: reconstituted with putidaredoxin and putidaredoxin reductase
Method: as §1, §3, §4, §5

SMILES | Wild type Vs DTT (Wild type P450cam [1]) | Mutant Y96A Vs DTT (P450cam Mutant Y96A) | Mutant Y96A ΔSpin high/low (P450cam Mutant Y96A) | other results
C1=Cc2ccccc2CC1 [1,2-Dihydronaphthalene] | 20 | 90 | 30 | Wild type ΔSpin high/low (Wild type P450cam [1]): 5
O=C(c1ccccc1)C1CCCCC1 [Cyclohexylphenylketone] | 30 | – | 60 | –
O=C1c2ccccc2-c2ccccc21 [9-Fluorenone] | 20 | 5 | – | –
CCCCC(C)(C)O [2-methyl-2-hexanol] | – | – | – | Products(%) Y96A ([2]; substrate 2-methyl hexane): 74%; Products(%) Y96F ([3]; substrate 2-methyl hexane): 72%
Cc1ccccc1 [Toluene] | – | 30 | 30 | –
CCCC(=O)CC [3-hexanone] | – | – | – | Products(%) Y96A ([2]; substrate hexane): 28%; Products(%) Y96F ([3]; substrate hexane): 16%
CC1(C)C(=O)[C@]2(C)CC[C@H]1C2 [(1R)-(-)-Fenchone] | 70 | 80 | 50 | Wild type ΔSpin high/low (Wild type P450cam [1]): 40
C1C2CC3CC1CC(C2)C3 [adamantane, reference compound] | – | – | – | haem spin-state conversion on substrate binding (Wild type P450cam [1]): fully converted the haem to the 5-co-ordinated, high-spin form
CCCCCC(C)C [2-methyl heptane] | – | – | – | Turnover rate (NADH consumption rate) Wild type (Wild type P450cam [4]): background; Turnover rate (NADH consumption rate) Y96A [5]: 2.1 nmole NADH/nmole P450cam/s
CCCC(C)(C)C [2,2-dimethyl pentane] | – | – | – | Turnover rate (NADH consumption rate) Wild type (Wild type P450cam [4]): 5.2 nmole NADH/nmole P450cam/s; Turnover rate (NADH consumption rate) Y96A [5]: 12.8 nmole NADH/nmole P450cam/s
CC1CCCCC1 [Methylcyclohexane] | 50 | 70 | 100 | Wild type ΔSpin high/low (Wild type P450cam [1]): 50
c1ccc(COCc2ccccc2)cc1 [Benzylether] | 5 | – | 55 | –
CCC(C)(C)C [2,2-dimethyl butane] | – | – | – | Turnover rate (NADH consumption rate) Wild type (Wild type P450cam [4]): background; Turnover rate (NADH consumption rate) Y96A [5]: 14.0 nmole NADH/nmole P450cam/s
CCC(=O)Oc1cccc2ccccc12 [1-Naphthylpropionate] | 20 | 20 | 0 | –
CCCCCCCCCCC [n-Undecane] | – | 20 | 20 | –
C=C(C)[C@H]1CC=C(C)C(=O)C1 [(S)-(+)-Carvone] | 60 | 80 | 10 | Wild type ΔSpin high/low (Wild type P450cam [1]): 10
CCCCCCCCCCCCOS(=O)(=O)O [SDS] | 20 | 60 | – | –
C1CC[C@H]2CCCC[C@@H]2C1 [trans-Decahydro naphthalene] | 10 | 70 | 90 | Wild type ΔSpin high/low (Wild type P450cam [1]): 20
CCc1ccccc1 [Ethylbenzene] | – | – | 40 | –
CC(=O)CCC(C)C [5-methyl-2-hexanone] | – | – | – | Products(%) Y96A ([2]; substrate 2-methyl hexane): 14%; Products(%) Y96F ([3]; substrate 2-methyl hexane): 16%
CCc1cccc2ccccc12 [1-Ethylnaphthalene] | – | 20 | 5 | –
CCCC(=O)Oc1cccc2ccccc12 [1-Naphthylbutyrate] | 5 | 5 | – | –
c1ccc2c(c1)CCCC2 [1,2,3,4-Tetrahydro naphthalene] | 10 | 40 | 40 | Wild type ΔSpin high/low (Wild type P450cam [1]): 5
CCCC(O)CC (stereo not shown) [3-hexanol] | – | – | – | Products(%) Y96A ([2]; substrate hexane): 32%; Products(%) Y96F ([3]; substrate hexane): 50%
CCCCCCCCCCCC [n-Dodecane] | – | 5 | 5 | –
CC(C)CCC(C)O (stereo not shown) [5-methyl-2-hexanol] | – | – | – | Products(%) Y96A ([2]; substrate 2-methyl hexane): 8%; Products(%) Y96F ([3]; substrate 2-methyl hexane): 5%

SMILES | Wild type Vs DTT (Wild type P450cam [1]) | Mutant Y96A Vs DTT (P450cam Mutant Y96A) | Mutant Y96A ΔSpin high/low (P450cam Mutant Y96A) | other results
C1CC2CCC1C2 [norbornane, reference compound] | – | – | – | haem spin-state conversion on substrate binding (Wild type P450cam [1]): fully converted the haem to the 5-co-ordinated, high-spin form
CCCC(O)C(C)C (stereo not shown) [2-methyl-3-hexanol] | – | – | – | Products(%) Y96A ([2]; substrate 2-methyl hexane): 4%; Products(%) Y96F ([3]; substrate 2-methyl hexane): 7%
c1ccc2c(c1)Cc1ccccc1-2 [Fluorene] | – | 50 | – | –
C1CCCCC1 [Cyclohexane] | – | 60 | 60 | –
O=Cc1ccc2c(c1)Cc1ccccc1-2 [2-Fluorencarboxaldehyde] | – | 50 | – | –
C(=C/c1ccccc1)/c1ccccc1 [cis-Stilbene] | 20 | 50 | 40 | –
c1ccc(Oc2ccccc2)cc1 [Diphenylether] | 5 | 50 | 20 | Wild type ΔSpin high/low (Wild type P450cam [1]): 10
CC1(C)[C@@H]2CC[C@@]1(C)C(=O)C2=O [(1R)-(-)-Camphorquinone] | 80 | 80 | 80 | Wild type ΔSpin high/low (Wild type P450cam [1]): 80
CC(C)CCCC(C)CCCC(C)CCCCC(C)CCCC(C)CCCC(C)C (stereo not shown) [Squalane] | – | 20 | – | –
CCCCCCCC/C=C\CCCCCCCC(=O)O [Oleic acid] | ~10 | ~20 | – | –
CCc1ccc2ccccc2c1 [2-Ethylnaphthalene] | – | 20 | 10 | –
C=CC(=C)C [Isoprene] | – | 10 | 10 | –
O=C1C2CC3CC(C2)CC1C3 [adamantanone, reference compound] | – | – | – | haem spin-state conversion on substrate binding (Wild type P450cam [1]): fully converted the haem to the 5-co-ordinated, high-spin form
O=C1c2ccccc2Cc2ccccc21 [Anthrone] | 5 | 5 | – | –
C1=CC2C3C=CC(C3)C2C1 (stereo not shown) [Dicyclopentadiene] | 80 | 90 | 90 | Wild type ΔSpin high/low (Wild type P450cam [1]): 50
CCCCCCCCC [n-Nonane] | – | 45 | 70 | –
c1ccc(Cc2ccccc2)cc1 [Diphenylmethane] | 5 | – | 45 | –
C1=CCCCC1 [Cyclohexene] | 5 | 40 | 40 | –
CCCCC(C)O (stereo not shown) [2-hexanol] | – | – | – | Products(%) Y96A ([2]; substrate hexane): 26%; Products(%) Y96F ([3]; substrate hexane): 24%
c1ccc(CNc2ccccc2)cc1 [N-Phenylbenzylamine] | 5 | – | 45 | –
c1ccc(-c2ccccc2)cc1 [Biphenyl] | 20 | 90 | – | –
O=C(Oc1ccccc1)c1ccccc1 [Phenylbenzoate] | 5 | – | – | –
CCCCC(C)=O [2-hexanone] | – | – | – | Products(%) Y96A ([2]; substrate hexane): 15%; Products(%) Y96F ([3]; substrate hexane): 10%
C=Cc1ccccc1 [Styrene] | – | 30 | 30 | –
c1ccc(CCc2ccccc2)cc1 [Bibenzyl] | – | 55 | 55 | –
